Reference: ChEMBL document CHEMBL5149986, “Spliceostatins and Derivatives: Chemical Syntheses and Biological Properties of Potent Splicing Inhibitors” (J Nat Prod, 2021)
Square brackets hold non-standard residues; d marks the D form. Peptide text beside a SMILES is read from it. * marks the point of attachment. Dolaproine = CO[C@@H]([C@@H]1CCCN1)[C@@H](C)C(=O)O; Dil = CC[C@H](C)[C@H](NC)[C@@H](CC(=O)O)OC; X1 = C[C@@H](N*)[C@@H](O)c1ccccc1; NMeV = CN[C@H](C(=O)O)C(C)C

Tests used:
MES-SA/Dx5 = assay: Cytotoxicity against human MES-SA/Dx5 cells assessed as inhibition in cell growth; assay type: functional, cell-based
MES-SA = assay: Cytotoxicity against human MES-SA cells assessed as inhibition in cell growth; assay type: functional, cell-based
[1] = Cytotoxicity against HEK293T cells assessed as inhibition in cell growth; assay type: toxicity, cell-based, HEK-293T; conditions: human
[2] = Inhibition of pre-mRNA splicing in human HeLa nuclear extract in presence of ATP; assay type: cell-free

| SMILES | IC50 (MES-SA/Dx5) | IC50 (MES-SA) | IC50 [1] | IC50 [2] |
| --- | --- | --- | --- | --- |
| CC(/C=C/[C@H]1O[C@H](C)C[C@@]2(CO2)[C@@H]1O)=C\C[C@@H]1O[C@H](C)[C@H](NC(=O)/C=C\[C@H](C)NC(=O)N(C)C)C[C@@H]1C | > 16 nM | 1.97 nM | 0.28 nM | – |
| CC(=O)O[C@@H](C)/C=C\C(=O)N[C@@H]1C[C@H](C)[C@H](C/C=C(C)/C=C/[C@H]2O[C@H](CC(=O)OC(C)(C)C)C[C@@]3(CO3)[C@@H]2O)O[C@@H]1C | 0.48 nM | 1.37 nM | 0.005 nM | – |
| C=C1C[C@@H](CC(=O)O)O[C@H](/C=C/C(C)=C/C[C@@H]2O[C@H](C)[C@H](NC(=O)/C=C\[C@H](C)OC(C)=O)C[C@@H]2C)[C@H]1O | > 1000 nM | > 1000 nM | > 1000 nM | – |
| CC(=O)O[C@@H](C)/C=C\C(=O)N[C@@H]1C[C@H](C)[C@H](C/C=C(C)/C=C/[C@H]2O[C@H](CCC#N)C[C@@]3(CO3)[C@@H]2O)O[C@@H]1C | 2.6 nM | 0.82 nM | 0.099 nM | – |
| CC(=O)O[C@@H](C)/C=C\C(=O)N[C@@H]1C[C@H](C)[C@H](C/C=C(C)/C=C/[C@H]2O[C@H](CC(=O)O)C[C@@](O)(CCl)[C@@H]2O)O[C@@H]1C [THAILANSTATIN B] | > 1000 nM | 856 nM | 194 nM | – |
| CC(=O)O[C@@H](C)/C=C\C(=O)N[C@@H]1C[C@H](C)[C@H](C/C=C(C)/C=C/[C@H]2O[C@H](C)C[C@@]3(CO3)[C@@H]2O)O[C@@H]1C | 0.56 nM | 0.55 nM | 0.1 nM | – |
| CC(/C=C/[C@H]1O[C@H](C)C[C@@]2(CO2)[C@@H]1O)=C\C[C@@H]1O[C@H](C)[C@H](NC(=O)/C=C\[C@H](C)OC(=O)N2CCN(C(=O)OC(C)(C)C)CC2)C[C@@H]1C | 7.01 nM | 2.87 nM | 0.018 nM | – |
| CC(/C=C/[C@H]1O[C@H](C)C[C@@]2(CO2)[C@@H]1O)=C\C[C@@H]1O[C@H](C)[C@H](NC(=O)/C=C\[C@H](C)OC(=O)N2CCOCC2)C[C@@H]1C | 1.48 nM | 0.38 nM | 0.08 nM | – |
| CC(/C=C/[C@H]1O[C@H](C)C[C@@]2(CO2)[C@@H]1O)=C\C[C@@H]1O[C@H](C)[C@H](NC(=O)/C=C\[C@H](C)OC(=O)N2CCCCC2)C[C@@H]1C | 0.57 nM | 0.5 nM | 0.07 nM | – |
| CC(/C=C/[C@H]1O[C@H](CC(=O)OC(C)(C)C)C[C@@](O)(CCl)[C@@H]1O)=C\C[C@@H]1O[C@H](C)[C@H](NC(=O)/C=C\[C@H](C)OC(=O)C(C)C)C[C@@H]1C | 10.3 nM | 264 nM | 0.13 nM | – |
| COC(=O)C[C@@H]1C[C@@]2(CO2)[C@H](O)[C@@H](/C=C/C(C)=C/C[C@@H]2O[C@H](C)[C@H](NC(=O)/C=C\[C@H](C)NC(=O)C(C)C)C[C@@H]2C)O1 | 384 nM | 6.16 nM | 0.058 nM | – |
| CC(/C=C/[C@H]1O[C@H](CC(=O)NCCC(=O)O)C[C@@]2(CO2)[C@@H]1O)=C\C[C@@H]1O[C@H](C)[C@H](NC(=O)/C=C\[C@H](C)OC(=O)C(C)C)C[C@@H]1C | 74 nM | 4.58 nM | 1.44 nM | – |
| CC(=O)O[C@@H](C)/C=C\C(=O)N[C@@H]1C[C@H](C)[C@H](C/C=C(C)/C=C/[C@H]2O[C@H](CCO)C[C@@]3(CO3)[C@@H]2O)O[C@@H]1C | 3.21 nM | 0.072 nM | 0.007 nM | – |
| CO[C@@H]1C[C@@]2(CO2)[C@H](O)[C@@H](/C=C/C(C)=C/C[C@@H]2O[C@H](C)[C@H](NC(=O)/C=C\[C@H](C)OC(=O)N(C)C)C[C@@H]2C)O1 | 2.01 nM | 1.08 nM | 0.09 nM | – |
| CO[C@@H]1C[C@@]2(CO2)[C@H](O)[C@@H](/C=C/C(C)=C/C[C@@H]2O[C@H](C)[C@H](NC(=O)/C=C\[C@H](C)OC(=O)N(C)CCO)C[C@@H]2C)O1 | 11 nM | 0.63 nM | 0.009 nM | – |
| CC(/C=C/[C@H]1O[C@H](C)C[C@@]2(CO2)[C@@H]1O)=C\C[C@@H]1O[C@H](C)[C@H](NC(=O)/C=C\[C@H](C)OC(=O)N(C)C)C[C@@H]1C | 0.14 nM | 0.04 nM | 0.003 nM | – |
| CC(=O)O[C@@H](C)/C=C\C(=O)N[C@@H]1C[C@H](C)[C@H](C/C=C(C)/C=C/[C@H]2O[C@H](CC(C)(C)O)C[C@@]3(CO3)[C@@H]2O)O[C@@H]1C | 2.96 nM | 0.64 nM | 0.08 nM | – |
| CC(/C=C/[C@H]1O[C@H](CC(=O)OC(C)(C)C)C[C@@]2(CO2)[C@@H]1O)=C\C[C@@H]1O[C@H](C)[C@H](NC(=O)/C=C\[C@H](C)OC(=O)C(C)C)C[C@@H]1C | 4.83 nM | 11.3 nM | 0.099 nM | – |
| CC(=O)O[C@@H](C)/C=C\C(=O)N[C@H]1C[C@H](C)[C@H](C/C=C(C)/C=C/[C@H]2O[C@](C)(O)C[C@@]3(CO3)[C@@H]2O)O[C@@H]1C | – | – | – | 1000 nM |
| CC(=O)O[C@@H](C)/C=C\C(=O)N[C@@H]1C[C@H](C)[C@H](C/C=C(C)/C=C/[C@H]2O[C@H](CCN=[N+]=[N-])C[C@@]3(CO3)[C@@H]2O)O[C@@H]1C | 0.72 nM | 1.08 nM | 0.028 nM | – |
| CO[C@]1(C)C[C@@]2(CO2)[C@H](O)[C@@H](/C=C/C(C)=C/C[C@@H]2O[C@H](C)[C@@H](NC(=O)/C=C\[C@H](C)OC(C)=O)C[C@@H]2C)O1 | – | – | – | 1000 nM |

| SMILES | IC50 (MES-SA/Dx5) | IC50 (MES-SA) | IC50 [1] | IC50 [2] |
| --- | --- | --- | --- | --- |
| CC(/C=C/[C@H]1O[C@H](C)C[C@@]2(CO2)[C@@H]1O)=C\C[C@@H]1O[C@H](C)[C@H](NC(=O)/C=C\[C@H](C)NC(=O)N2CCOCC2)C[C@@H]1C | 100 nM | 2.87 nM | 0.3 nM | – |
| CO[C@@H]1C[C@@]2(CN2)[C@H](O)[C@@H](/C=C/C(C)=C/C[C@@H]2O[C@H](C)[C@H](NC(=O)/C=C\[C@H](C)OC(C)=O)C[C@@H]2C)O1 | 210 nM | 0.6 nM | 0.144 nM | – |
| CC(/C=C/[C@H]1O[C@H](C)C[C@@]2(CO2)[C@@H]1O)=C\C[C@@H]1O[C@H](C)[C@H](NC(=O)/C=C\[C@H](C)NC(=O)C(C)C)C[C@@H]1C | 4.91 nM | 0.23 nM | 0.015 nM | – |
| CO[C@]1(C)C[C@]2(CO2)[C@@H](O)[C@@H](/C=C/C(C)=C/C[C@@H]2O[C@H](C)[C@H](NC(=O)/C=C\[C@H](C)OC(C)=O)C[C@@H]2C)O1 | – | – | – | 1500 nM |
| CO[C@]1(C)C[C@@]2(CO2)[C@H](O)[C@@H](/C=C/C(C)=C/C[C@@H]2O[C@H](C)[C@H](NC(=O)/C=C\[C@H](C)OC(C)=O)C[C@@H]2C)O1 | – | – | – | 10 nM |
| CO[C@@H]1C[C@@]2(CO2)[C@H](O)[C@@H](/C=C/C(C)=C/C[C@@H]2O[C@H](C)[C@H](NC(=O)/C=C\[C@H](C)OC(=O)N3CCOCC3)C[C@@H]2C)O1 | 13.8 nM | 0.49 nM | 0.006 nM | – |
| CC(/C=C/[C@H]1O[C@H](C)C[C@@]2(CO2)[C@@H]1O)=C\C[C@@H]1O[C@H](C)[C@H](NC(=O)/C=C\[C@H](C)NC(=O)N2CCCCC2)C[C@@H]1C | 64 nM | 3.19 nM | 0.041 nM | – |
| CC(=O)O[C@@H](C)/C=C\C(=O)N[C@@H]1C[C@H](C)[C@H](C/C=C(C)/C=C/[C@H]2O[C@](C)(O)C[C@]3(CO3)[C@H]2O)O[C@@H]1C | – | – | – | 35000 nM |
| CC[C@H](C)[C@@H]([C@@H](CC(=O)N1CCC[C@H]1[C@H](OC)[C@@H](C)C(=O)N[C@H](C)[C@@H](O)c1ccccc1)OC)N(C)C(=O)[C@@H](NC(=O)[C@@H](NC)C(C)C)C(C)C (H-[NMeV]V[Dil][Dolaproine]-X1) | 88.2 nM | 0.096 nM | 0.068 nM | – |
| CC(/C=C/[C@H]1O[C@H](CC(=O)OC2CC2)C[C@@]2(CO2)[C@@H]1O)=C\C[C@@H]1O[C@H](C)[C@H](NC(=O)/C=C\[C@H](C)OC(=O)C(C)C)C[C@@H]1C | 16.1 nM | 2.15 nM | 0.218 nM | – |
| CNC(=O)O[C@@H]1[C@@H](/C=C/C(C)=C/C[C@@H]2O[C@H](C)[C@H](NC(=O)/C=C\[C@H](C)OC(C)=O)C[C@@H]2C)O[C@H](OC)C[C@@]12CO2 | 76.1 nM | 76.7 nM | 10.1 nM | – |
| CC(/C=C/[C@H]1O[C@H](CC(=O)O)C[C@@](O)(CCl)[C@@H]1O)=C\C[C@@H]1O[C@H](C)[C@H](NC(=O)/C=C\[C@H](C)OC(=O)C(C)C)C[C@@H]1C [THAILANSTATIN C] | 298 nM | 137 nM | 64.7 nM | – |
| CC(=O)O[C@H]1C(=O)[C@@]2(C)[C@H]([C@H](OC(=O)c3ccccc3)[C@]3(O)C[C@H](OC(=O)[C@H](O)[C@@H](NC(=O)c4ccccc4)c4ccccc4)C(C)=C1C3(C)C)[C@]1(OC(C)=O)CO[C@@H]1C[C@@H]2O [PACLITAXEL] | > 400 nM | 2.47 nM | 1.76 nM | – |
| CC(=O)O[C@@H](C)/C=C\C(=O)N[C@@H]1C[C@H](C)[C@H](C/C=C(C)/C=C/[C@H]2O[C@H](CC(=O)OC(C)(C)C)C[C@@](O)(CCl)[C@@H]2O)O[C@@H]1C | 5.16 nM | 14.9 nM | 0.033 nM | – |
| CO[C@@H]1C[C@@]2(CO2)[C@H](OC(C)=O)[C@@H](/C=C/C(C)=C/C[C@@H]2O[C@H](C)[C@H](NC(=O)/C=C\[C@H](C)OC(C)=O)C[C@@H]2C)O1 | 1.98 nM | 1.76 nM | 0.031 nM | – |
| CO[C@@H]1C[C@@]2(CO2)[C@H](O)[C@@H](/C=C/C(C)=C/C[C@@H]2O[C@H](C)[C@H](NC(=O)/C=C\[C@H](C)NC(=O)C(C)C)C[C@@H]2C)O1 | 384 nM | 6.16 nM | 0.058 nM | – |
| CC(=O)O[C@@H](C)/C=C\C(=O)N[C@@H]1C[C@H](C)[C@H](C/C=C(C)/C=C/[C@H]2O[C@H](CCNC(=O)OC(C)(C)C)C[C@@]3(CO3)[C@@H]2O)O[C@@H]1C | 1.8 nM | 0.13 nM | 0.004 nM | – |
| CCOC(=O)/C=C/C[C@@H]1C[C@@]2(CO2)[C@H](O)[C@@H](/C=C/C(C)=C/C[C@@H]2O[C@H](C)[C@H](NC(=O)/C=C\[C@H](C)OC(=O)C(C)C)C[C@@H]2C)O1 | 2.73 nM | 2.96 nM | 0.09 nM | – |
| CO[C@@H]1C[C@@]2(CO2)[C@H](O)[C@@H](/C=C/C(C)=C/C[C@@H]2O[C@H](C)[C@H](NC(=O)/C=C\[C@H](C)OC(=O)N3CCCCC3)C[C@@H]2C)O1 | 3.35 nM | 3.71 nM | 0.11 nM | – |
| CC(=O)O[C@@H](C)/C=C\C(=O)N[C@@H]1C[C@H](C)[C@H](C/C=C(C)/C=C/[C@H]2O[C@H](CC(=O)O)C[C@@]3(CO3)[C@@H]2O)O[C@@H]1C [THAILANSTATIN A] | > 400 nM | 419 nM | 296 nM | – |
